Test results: patent US20050197338A1, “Substituted pyrazole urea compounds for the treatment of inflammation” (priority 2003, published 2005)

molecular target: T1, Rat IKK-2 (Rattus norvegicus, UniProt Q9QY78); assay: Rat IKK-2 enzyme assay; format: biochemical; details: read-out: IC50 (μM) rIKK-2
T1 sequence (Q9QY78 1-757): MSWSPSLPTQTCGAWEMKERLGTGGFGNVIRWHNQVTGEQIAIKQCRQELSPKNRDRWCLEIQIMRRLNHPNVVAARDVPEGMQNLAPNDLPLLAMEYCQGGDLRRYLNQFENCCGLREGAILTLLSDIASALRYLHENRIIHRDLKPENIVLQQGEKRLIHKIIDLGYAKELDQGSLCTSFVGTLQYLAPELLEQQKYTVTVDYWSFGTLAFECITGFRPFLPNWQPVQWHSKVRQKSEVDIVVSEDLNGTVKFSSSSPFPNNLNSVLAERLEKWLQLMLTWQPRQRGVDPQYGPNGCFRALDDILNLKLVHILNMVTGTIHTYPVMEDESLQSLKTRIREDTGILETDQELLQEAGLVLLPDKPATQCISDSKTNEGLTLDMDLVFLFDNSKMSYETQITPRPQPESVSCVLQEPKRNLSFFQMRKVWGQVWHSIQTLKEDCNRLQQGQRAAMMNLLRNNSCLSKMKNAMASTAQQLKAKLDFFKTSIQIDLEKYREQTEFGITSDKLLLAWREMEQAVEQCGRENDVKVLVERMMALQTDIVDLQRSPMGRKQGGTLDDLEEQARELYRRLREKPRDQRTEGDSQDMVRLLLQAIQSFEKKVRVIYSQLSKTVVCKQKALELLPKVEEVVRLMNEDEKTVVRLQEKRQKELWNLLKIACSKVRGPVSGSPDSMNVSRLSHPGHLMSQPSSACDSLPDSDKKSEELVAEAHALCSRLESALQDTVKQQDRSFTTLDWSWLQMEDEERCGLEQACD
Experimental: Kinase activity was measured using a biotinylated […] peptide (Gly-Leu-Lys-Lys-Glu-Arg-Leu-Leu-Asp-Asp-Arg-His-Asp-Ser32-Gly-Leu-Asp-Ser36-Met-Lys-Asp-Glu-Glu) (American Peptide Co.). 20 μL of the standard reaction mixture contained 5 μM biotinylated IκBα peptide, 0.1 μCi/reaction [γ-^33P] ATP (Amersham) (about 1×10^5 cpm), 1 μM ATP (Sigma), 1 mM DTT (Sigma), 2 mM MgCl2 (Sigma), 2 mM MnCl2 (Sigma), 10 mM NaF (Sigma), 25 mM Hepes (Sigma) buffer, pH. 7.6 and 20 μL enzyme solution (50 nM/rxn or 200 ng/rxn) and 10 μL inhibitor in a final volume of 50 μL. After incubation at 25° C. for 60 min, 150 μL resin was added to each well to stop the reaction. Resin was mixed and allowed to settle for 1 h and 50 μL of supernatant was removed to a Micolite 2 flat bottom plate (Dynex). 150 μL of scintillation fluid (Microscint 40) (Packard) was added to each well. Incorporation of [γ-^33P] ATP was measured using a Top-Count NXT (Packard).

Row | SMILES | IC50 [µM]
1 | NC(=O)Nc1cn(-c2ccc(S(=O)(=O)c3ccccc3F)c(Cl)c2)nc1C(N)=O [Example 271, 4-[(aminocarbonyl)amino]-1-{3-chloro-4-[(2-fluorophenyl)sulfonyl]phenyl}-1H-pyrazole-3-carboxamide] | 0.956
2 | NC(=O)Nc1cn(-c2ccc(-c3cc(F)ccc3O)c(F)c2)nc1C(N)=O [Example 263, 4-[(aminocarbonyl)amino]-1-(2,5′-difluoro-2′-hydroxy-1,1′-biphenyl-4-yl)-1H-pyrazole-3-carboxamide] | 0.482
3 | NC(=O)Nc1cn(-c2ccc([S+]([O-])c3ccncc3)cc2)nc1C(N)=O (stereo not shown) [Example 294, 1-(3-carbamoyl-1-(4-(pyridin-4-ylsulfinyl)phenyl)-1H-pyrazol-4-yl)urea] | 0.237
4 | NC(=O)COc1ccccc1-c1ccc(-n2cc(NC(N)=O)c(C(N)=O)n2)cc1F [Example 266, 4-[(aminocarbonyl)amino]-1-[2′-(2-amino-2-oxoethoxy)-2-fluoro-1,1′-biphenyl-4-yl]-1H-pyrazole-3-carboxamide] | 0.392
5 | COc1ccc(-n2cc(NC(N)=O)c(C(N)=O)n2)cc1OC [Example 330, 4-[(aminocarbonyl)amino]-1-(3,4-dimethoxyphenyl)-1H-pyrazole-3-carboxamide] | 1.78
6 | CCOc1cc(-n2cc(NC(N)=O)c(C(N)=O)n2)ccc1-c1ccc(OCC(N)=O)cc1 [Example 275, 4-[(aminocarbonyl)amino]-1-[4′-(2-amino-2-oxoethoxy)-2-ethoxy-1,1′-biphenyl-4-yl]-1H-pyrazole-3-carboxamide] | 10.8
7 | CCCOc1ccc(-n2cc(NC(N)=O)c(C(N)=O)n2)cc1Cl [Example 334, 4-[(aminocarbonyl)amino]-1-(3-chloro-4-propoxyphenyl)-1H-pyrazole-3-carboxamide] | 2.42
8 | NC(=O)Nc1cn(-c2ccc(Sc3cccc(Br)c3)cc2)nc1C(N)=O [Example 293, 1-(1-(4-(3-bromophenylthio)phenyl)-3-carbamoyl-1H-pyrazol-4-yl)urea] | 4.82
9 | CCc1ccccc1-n1cc(NC(N)=O)c(C(N)=O)n1 [Example 314, 1-(2-ethyl-phenyl)-4-ureido-1H-pyrazole-3-carboxylic acid amide] | > 20
10 | NC(=O)Nc1cn(-c2cccc(O)c2)nc1C(N)=O [Example 300, 1-(3-hydroxy-phenyl)-4-ureido-1H-pyrazole-3-carboxylic acid amide] | 0.378
11 | NC(=O)Nc1cn(-c2ccc(OC(F)(F)F)cc2)nc1C(N)=O [Example 328, 4-[(aminocarbonyl)amino]-1-[4-(trifluoromethoxy)phenyl]-1H-pyrazole-3-carboxamide] | 0.446
12 | CCCc1ccc(-n2cc(NC(N)=O)c(C(N)=O)n2)cc1 [Example 305, 4-[(aminocarbonyl)amino]-1-(4-propylphenyl)-1H-pyrazole-3-carboxamide] | 0.098
13 | NC(=O)Nc1cn(-c2cccc(F)c2)nc1C(N)=O [Example 316, 1-(3-fluoro-phenyl)-4-ureido-1H-pyrazole-3-carboxylic acid amide] | 0.533
14 | COc1ccccc1-c1ccc(-n2cc(NC(N)=O)c(C(N)=O)n2)cc1F [Example 267, 4-[(aminocarbonyl)amino]-1-(2-fluoro-2′-methoxy-1,1′-biphenyl-4-yl)-1H-pyrazole-3-carboxamide] | 2.75
15 | Cc1cc(-n2cc(NC(N)=O)c(C(N)=O)n2)ccc1F [Example 304, 4-[(aminocarbonyl)amino]-1-(4-fluoro-3-methylphenyl)-1H-pyrazole-3-carboxamide] | 0.547
16 | Cc1cc(-n2cc(NC(N)=O)c(C(N)=O)n2)ccc1OCc1ccccc1 [Example 307, 4-[(aminocarbonyl)amino]-1-[4-(benzyloxy)-3-methylphenyl]-1H-pyrazole-3-carboxamide] | 6.44
